Several values for one entry are separate records, joined by “and”; a condition that tells them apart may be missing. Equal values may be shown once. Activity calls are given as the source filed them.
Columns and labels:
[1] = cytotoxicity in primary human melanocytes, dose response, cytotoxicity control, cell-based, plate reader, dry powder (AID 651920); assay type: functional
[2] = A375 melanoma cell cytotoxicity, dose response, counter-screen for MITF inhibitor project, CellTiter-Glo luminescence, dry powder, set 7 (AID 624490); assay type: functional, cell-based; conditions: A-375
[3] = target: T1, Heat shock factor protein 1 (Mus musculus, UniProt P38532); assay: HSF1 potentiators in luciferase reporter cells, confirmation, cell-based, NIH3T3, luminescence, dose retest (AID 435004); assay type: functional;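 also: stress induced by proteasome inhibitor MG132 added 30 min after compound; luciferase reporter driven by HSF1 response element in NIH3T3 cells; actives raise luminescence as potentiators of the MG132 stress response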
T1 sequence (P38532 whole entry): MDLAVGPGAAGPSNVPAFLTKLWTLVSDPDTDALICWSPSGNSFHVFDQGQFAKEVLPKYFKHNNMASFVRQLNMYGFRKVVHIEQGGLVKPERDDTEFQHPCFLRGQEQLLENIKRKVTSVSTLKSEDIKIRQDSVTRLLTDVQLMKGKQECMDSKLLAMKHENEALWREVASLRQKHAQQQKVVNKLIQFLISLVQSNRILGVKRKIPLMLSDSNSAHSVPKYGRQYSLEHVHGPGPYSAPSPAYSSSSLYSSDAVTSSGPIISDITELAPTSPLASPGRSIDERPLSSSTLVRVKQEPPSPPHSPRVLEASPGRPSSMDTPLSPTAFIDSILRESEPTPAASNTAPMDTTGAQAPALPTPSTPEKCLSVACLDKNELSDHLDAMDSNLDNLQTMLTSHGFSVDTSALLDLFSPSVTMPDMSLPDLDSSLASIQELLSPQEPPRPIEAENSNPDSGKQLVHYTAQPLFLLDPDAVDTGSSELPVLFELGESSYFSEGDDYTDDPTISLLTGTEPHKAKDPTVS

INS1 = assay: beta cell apoptosis inhibitors, cytokine rescue, dose response, luminescence, retest (AID 449756); assay type: functional, cell-based; conditions: Rattus norvegicus;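 also: cell death triggered by IL-1 beta plus TNF-alpha plus IFN-gamma mixture; protective hits raise ATP signal compared with cytokine alone wells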
[4] = A375 melanoma cell cytotoxicity, dose response, counter-screen for MITF inhibitor project, CellTiter-Glo luminescence, dry powder, set 6 (AID 624488); assay type: functional, cell-based
[5] = A375 melanoma cell cytotoxicity, dose response, counter-screen for MITF inhibitor project, CellTiter-Glo luminescence, dry powder, set 2 (AID 624489); assay type: functional, cell-based; conditions: A-375;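 also: actives are compounds lowering A375 viability meaning general cytotoxicity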
Nonstructural protein 1 = Nonstructural protein 1 (Influenza A virus, UniProt Q194T2); assay type: functional, Influenza A virus (A/California/07/2009(H1N1))
Chain of Nonstructural protein 1 (Q194T2 whole entry): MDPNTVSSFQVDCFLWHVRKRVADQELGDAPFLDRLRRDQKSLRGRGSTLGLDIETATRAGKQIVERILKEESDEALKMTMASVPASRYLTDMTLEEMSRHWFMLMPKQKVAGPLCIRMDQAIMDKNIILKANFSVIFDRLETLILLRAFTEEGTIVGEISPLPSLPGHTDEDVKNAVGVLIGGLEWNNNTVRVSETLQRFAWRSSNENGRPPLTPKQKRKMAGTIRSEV

[6] = target: T2, Calpain-2 catalytic subunit (Sus scrofa, UniProt P43367); assay: pig calpain II inhibitor potency, dose response, biochemical, fluorogenic peptide substrate (AID 1420); assay type: functional
T2 sequence (P43367 whole entry): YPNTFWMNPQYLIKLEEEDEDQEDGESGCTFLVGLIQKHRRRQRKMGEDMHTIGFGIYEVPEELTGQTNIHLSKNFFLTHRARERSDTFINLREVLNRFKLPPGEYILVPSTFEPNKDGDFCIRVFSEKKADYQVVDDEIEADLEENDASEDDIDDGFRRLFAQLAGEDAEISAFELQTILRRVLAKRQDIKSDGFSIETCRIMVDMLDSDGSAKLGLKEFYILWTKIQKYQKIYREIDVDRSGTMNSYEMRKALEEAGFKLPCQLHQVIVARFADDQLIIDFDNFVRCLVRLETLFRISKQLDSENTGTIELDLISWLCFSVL

[7] = MITF Measured in Cell-Based System Using Plate Reader - 2084-01_Inhibitor_Dose_DryPowder_Activity_Set6.; assay type: functional
[8] = A375 melanoma cell viability loss, dose response, counter-screen for MITF modulator project, CellTiter-Glo luminescence, dry powder, set 9 (AID 651591); assay type: functional, cell-based; conditions: A-375
[9] = A375 melanoma cell viability loss, dose response, counter-screen for MITF inhibitor project, CellTiter-Glo luminescence, dry powder, set 4 (AID 624364); assay type: functional, cell-based; conditions: A-375;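 also: A375 melanoma cells are MITF independent so this is a counter screen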
[10] = SK-MEL-5 parental line viability, dose response, MITF inhibitor project, cell-based, CellTiter-Glo, dry powder, set 6 (AID 624429); assay type: functional
[11] = MITF Orthogonal Assay: SK-MEL-5 CTG Assay Measured in Cell-Based System Using Plate Reader - 2084-02_Inhibitor_Dose_DryPowder_Activity_Set5.; assay type: functional
cells = assay type: functional, cell-based; conditions: INS-1E
[12] = Dose-response inhibition of insulin secretion in a rat insulinoma line at 5 mM glucose (AID 1117331); assay type: functional, cell-based; conditions: INS-1E
[13] = target: G-protein coupled receptor 183 (Homo sapiens, UniProt P32249); assay: Dose-response confirmation of small molecule antagonists of the EBI2 receptor via a luminescent beta-arrestin assay.; assay type: functional
Chain of G-protein coupled receptor 183 (P32249 whole entry): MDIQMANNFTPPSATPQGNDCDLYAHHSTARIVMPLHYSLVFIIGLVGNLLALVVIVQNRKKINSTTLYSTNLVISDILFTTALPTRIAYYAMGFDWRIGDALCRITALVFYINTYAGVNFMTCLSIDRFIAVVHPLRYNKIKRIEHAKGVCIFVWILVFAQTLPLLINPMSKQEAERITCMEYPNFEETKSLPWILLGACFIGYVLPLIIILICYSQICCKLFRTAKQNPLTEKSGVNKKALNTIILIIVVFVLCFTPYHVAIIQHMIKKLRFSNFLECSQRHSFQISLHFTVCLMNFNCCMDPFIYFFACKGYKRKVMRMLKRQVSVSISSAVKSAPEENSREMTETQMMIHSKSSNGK

Beta-galactosidase = Beta-galactosidase (Escherichia coli, UniProt Q8VNN2); assay: Dose response counterscreen for EBI2 assay utilizing the enzyme, b-galactosidase.; assay type: functional
Chain of Beta-galactosidase (Q8VNN2 whole entry): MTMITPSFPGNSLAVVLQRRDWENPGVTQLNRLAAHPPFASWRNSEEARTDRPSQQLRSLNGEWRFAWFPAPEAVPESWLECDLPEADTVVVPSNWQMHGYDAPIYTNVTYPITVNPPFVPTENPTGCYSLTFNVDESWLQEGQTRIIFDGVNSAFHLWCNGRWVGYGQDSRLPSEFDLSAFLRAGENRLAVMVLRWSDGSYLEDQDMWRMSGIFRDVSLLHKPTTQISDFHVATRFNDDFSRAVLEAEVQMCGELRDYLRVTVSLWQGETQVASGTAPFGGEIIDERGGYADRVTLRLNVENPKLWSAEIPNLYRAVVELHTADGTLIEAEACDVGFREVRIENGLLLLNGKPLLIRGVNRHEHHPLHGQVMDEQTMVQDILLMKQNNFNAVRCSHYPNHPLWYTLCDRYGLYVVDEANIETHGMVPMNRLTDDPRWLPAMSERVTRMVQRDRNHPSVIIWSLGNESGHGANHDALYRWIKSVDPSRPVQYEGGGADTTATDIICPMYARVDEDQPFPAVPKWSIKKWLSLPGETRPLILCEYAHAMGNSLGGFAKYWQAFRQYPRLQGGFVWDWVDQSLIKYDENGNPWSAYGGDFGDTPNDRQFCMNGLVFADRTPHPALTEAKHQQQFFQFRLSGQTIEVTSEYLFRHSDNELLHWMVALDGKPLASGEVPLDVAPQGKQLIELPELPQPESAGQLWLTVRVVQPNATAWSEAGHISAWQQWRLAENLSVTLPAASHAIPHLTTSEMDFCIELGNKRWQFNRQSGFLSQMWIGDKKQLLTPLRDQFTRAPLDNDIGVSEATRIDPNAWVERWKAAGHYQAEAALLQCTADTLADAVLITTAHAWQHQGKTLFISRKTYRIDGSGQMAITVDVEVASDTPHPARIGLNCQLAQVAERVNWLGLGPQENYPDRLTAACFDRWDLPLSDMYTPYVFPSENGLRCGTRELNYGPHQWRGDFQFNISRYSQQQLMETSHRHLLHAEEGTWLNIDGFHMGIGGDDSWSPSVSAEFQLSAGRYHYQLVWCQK

[14] = target: T3, Low molecular weight phosphotyrosine protein phosphatase (Homo sapiens, UniProt P24666); assay: LMPTP phosphatase inhibitors, dose response, biochemical, OMFP substrate, fluorescence intensity, set 2 (AID 743307); assay type: functional
T3 sequence (P24666 whole entry): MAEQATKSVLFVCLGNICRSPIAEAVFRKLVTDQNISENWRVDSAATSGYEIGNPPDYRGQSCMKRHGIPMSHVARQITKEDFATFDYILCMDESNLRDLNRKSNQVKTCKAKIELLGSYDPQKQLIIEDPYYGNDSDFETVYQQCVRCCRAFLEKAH

[15] = target: T3, Low molecular weight phosphotyrosine protein phosphatase; assay: LMPTP phosphatase inhibitors, colorimetric pNPP readout, dose response, orthogonal assay, biochemical, absorbance, pNPP substrate, LMPTP-A isoform, set 2 (AID 743308); assay type: functional

With `O=C1C=C(Nc2ccccc2)C(=O)c2ccccc21` the AC50 [1] was > 70 µM (inactive), the AC50 [2] was > 70 µM (inactive) and the EC50 [3] was 1.26 µM (active). The AC50 (INS1) was 3.97 µM (active), the AC50 [4] was > 70 µM (inactive) and the AC50 ([4]; A-375) was 51.5 µM (active). For the same compound, the AC50 [5] was > 70 µM (inactive), the IC50 (Nonstructural protein 1) was 81.7 µM (active) and the IC50 [6] was 6.16 µM (not active). The AC50 [7] was 7.24 µM (active) and 5.31 µM (active), the AC50 [8] was > 70 µM (inactive) and the AC50 [9] was > 70 µM (inactive). The AC50 ([10]; SK-MEL-5) was 2.37 µM (active), the AC50 ([10]; sk-mel-5) was 1.93 µM (active) and the AC50 ([11]; SK-MEL-5) was 1.53 µM (active). For the same compound, the AC50 ([11]; sk-mel-5) was 1.18 µM (active).
For `CCN(CC)CCNC(C(=O)OCCC(C)C)c1ccccc1` (configuration not stated) [CAMYLOFIN], the IC50 (cells) was > 33.3 µM (inactive) and the IC50 [12] was 24.8 µM (inactive).
In the case of `O=C(/C=C/c1ccccc1)N1CCN(S(=O)(=O)c2ccc(F)cc2)CC1`, the IC50 [13] is reported as 0.626 µM (active) and the IC50 (Beta-galactosidase) is reported as > 80 µM (inactive).
With `c1ccc(-c2nc(N3CCCC3)c3ccccc3n2)cc1` the IC50 [14] was 42.1 µM (inactive) and the IC50 [15] was > 80 µM (inactive).

Source: ChEMBL document CHEMBL1201862, “PubChem BioAssay data set” (2004)
